“And” between values parts separate entries of the source, which are not always exact repeats. Equal entries are not always repeated. Toxic doses and inconclusive results are not listed.
Test system: BDF1 mice, P388 leukemia ip, median survival T/C
Test: NCI In Vivo Anticancer Drug Screen. Data for tumor model P388 Leukemia (intraperitoneal) in B6D2F1 (BDF1) mice
Conditions: endpoint: median survival time, higher = longer survival
Procedure, shortened: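 Reported as T/C, where T is the survival measurement in dosed animals and C the same measurement in vehicle controls.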

[1] = dose: 100.0 mg/kg/injection, schedule: Q01DX009 (ip), vehicle: saline
[2] = dose: 200.0 mg/kg/injection, schedule: Q01DX009 (ip), vehicle: saline
[3] = dose: 400.0 mg/kg/injection, schedule: Q01DX009 (ip), vehicle: saline
[4] = dose: 50.0 mg/kg/injection, schedule: Q01DX009 (ip), vehicle: saline with Tween-80
[5] = dose: 100.0 mg/kg/injection, schedule: Q01DX009 (ip), vehicle: saline with Tween-80
[6] = dose: 200.0 mg/kg/injection, schedule: Q01DX009 (ip), vehicle: saline with Tween-80
[7] = dose: 100.0 mg/kg/injection, schedule: Q04DX003 (ip), vehicle: saline
[8] = dose: 200.0 mg/kg/injection, schedule: Q04DX003 (ip), vehicle: saline
[9] = dose: 400.0 mg/kg/injection, schedule: Q04DX003 (ip), vehicle: saline

Cc1cc(NCCCCNCCCNc2cc(C)nc3cc(N)ccc23)c2ccc(N)cc2n1
T/C (dose: 12.5 mg/kg/injection, schedule: Q01DX009 (ip), vehicle: other): 155 % of control

NCC1OC(OC2C(CO)OC(OC3C(O)C(N)CC(N)C3OC3OC(CO)C(O)C(O)C3N)C2O)C(N)C(O)C1O (stereo not given)
T/C [1]: 104 % of control | T/C [2]: 106 % of control | T/C [3]: 97 % of control

O=C(c1ccccc1)c1ccccc1C(=O)c1ccccc1
T/C (dose: 25.0 mg/kg/injection, schedule: Q01DX009 (ip), vehicle: Klucel (hydroxypropylcellulose) (HPC)): 95 % of control | T/C (dose: 50.0 mg/kg/injection, schedule: Q01DX009 (ip), vehicle: Klucel (hydroxypropylcellulose) (HPC)): 100 % of control | T/C (dose: 100.0 mg/kg/injection, schedule: Q01DX009 (ip), vehicle: Klucel (hydroxypropylcellulose) (HPC)): 89 % of control and 91 % of control | T/C (dose: 100.0 mg/kg/injection, schedule: Q04DX003 (ip), vehicle: Klucel (hydroxypropylcellulose) (HPC)): 109 % of control | T/C (dose: 200.0 mg/kg/injection, schedule: Q04DX003 (ip), vehicle: Klucel (hydroxypropylcellulose) (HPC)): 104 % of control | T/C (dose: 400.0 mg/kg/injection, schedule: Q04DX003 (ip), vehicle: Klucel (hydroxypropylcellulose) (HPC)): 118 % of control

CC[C@@]1(O)C[C@H](OC2CC(N(C)C)C(O)C(C)O2)c2c(O)c3c(c(O)c2[C@H]1OC1CC(N(C)C)C(O)C(C)O1)C(=O)c1cccc(O)c1C3=O (stereo not given in full)
T/C (dose: 0.25 mg/kg/injection, schedule: Q01DX010 (ip), vehicle: saline): 100 % of control

CC1(C)C(O)(C#N)C(C)(C)C1(O)C#N (stereo not given)
T/C (dose: 3.13 mg/kg/injection, schedule: Q04DX003 (ip), vehicle: saline): 100 % of control | T/C (dose: 6.25 mg/kg/injection, schedule: Q04DX003 (ip), vehicle: saline): 109 % of control | T/C (dose: 12.5 mg/kg/injection, schedule: Q04DX003 (ip), vehicle: saline): 95 % of control

CC(=Nc1ccccc1)C1=C(O)C(Cc2ccccc2)NC1=O (stereo not given)
T/C [4]: 124 % of control

CC(=O)NC1C(S[As](C)C)OC(COC(C)=O)C(OC(C)=O)C1OC(C)=O (stereo not given)
T/C [5]: 124 % of control

CCN(CC)CCCC(C)NC/C=C/CNC(C)CCCN(CC)CC (stereo not given)
T/C (dose: 0.78 mg/kg/injection, schedule: Q01DX009 (ip), vehicle: water): 99 % of control | T/C (dose: 1.56 mg/kg/injection, schedule: Q01DX009 (ip), vehicle: water): 91 % of control | T/C (dose: 3.12 mg/kg/injection, schedule: Q01DX009 (ip), vehicle: water): 91 % of control | T/C (dose: 12.5 mg/kg/injection, schedule: Q01DX009 (ip), vehicle: water): 86 % of control | T/C (dose: 25.0 mg/kg/injection, schedule: Q01DX009 (ip), vehicle: water): 91 % of control | T/C (dose: 50.0 mg/kg/injection, schedule: Q01DX009 (ip), vehicle: water): 99 % of control

O=C1NC2(CCCCCC2)C(=O)N1CN1CCOCC1
T/C (dose: 25.0 mg/kg/injection, schedule: Q04DX003 (ip), vehicle: saline sonified): 90 % of control | T/C (dose: 50.0 mg/kg/injection, schedule: Q04DX003 (ip), vehicle: saline sonified): 95 % of control | T/C (dose: 100.0 mg/kg/injection, schedule: Q04DX003 (ip), vehicle: saline sonified): 104 % of control

COc1ccccc1C(C#N)N1CCCN(C(C#N)c2ccccc2OC)C1c1cc(Cl)cc(Cl)c1O (stereo not given)
T/C [4]: 95 % of control | T/C [5]: 98 % of control | T/C [6]: 98 % of control | T/C (dose: 400.0 mg/kg/injection, schedule: Q01DX009 (ip), vehicle: saline with Tween-80): 91 % of control

C[N+](C)(Cn1nc(Cl)c2cc([N+](=O)[O-])ccc21)Cn1nc(Cl)c2cc([N+](=O)[O-])ccc21
T/C (dose: 100.0 mg/kg/injection, schedule: Q04DX003 (ip), vehicle: saline with Tween-80): 115 % of control | T/C (dose: 200.0 mg/kg/injection, schedule: Q04DX003 (ip), vehicle: saline with Tween-80): 153 % of control

C(=C/c1ccnc2ccccc12)/c1cccs1
T/C (dose: 25.0 mg/kg/injection, schedule: Q01DX009 (ip), vehicle: saline with Tween-80): 102 % of control | T/C [4]: 110 % of control | T/C [5]: 111 % of control | T/C [6]: 119 % of control

CC(=O)NC1CCCC(O)C1 (stereo not given)
T/C [1]: 90 % of control | T/C [7]: 100 % of control | T/C [2]: 95 % of control | T/C [8]: 113 % of control | T/C [3]: 100 % of control | T/C [9]: 104 % of control

CNC(=S)NN
T/C [7]: 100 % of control | T/C (dose: 200.0 mg/kg/injection, schedule: Q01DX001 (ip), vehicle: saline): 100 % of control | T/C [8]: 90 % of control | T/C [9]: 100 % of control

Reference: PubChem BioAssay AID328 (DTP/NCI, 2004)
